What was measured:
MCF-7 cells = assay: Cytotoxic effects, concentration dependent test (IC50), crystal violet staining; format: cell-based; settings: Homo sapiens, MCF7; estrogen receptor positive MCF-7 cells; incubation of 72 h
Protocol: (§1) The cytotoxic assay in estrogen receptor positive MCF-7 cells has been described previously by Ruenitz, P.C. et al. (1997) J. Steroid Biochem. Mol. Biol. 63, 203-209). Fiation, staining and quantitation of the cells were carried out according to Gillies (Gillies, R.J. et al. (1986) Anal. Biochem. 159, 109-113) and Kueng (Kueng, W. et al. (1989) Anal. Biochem. 182, 16-19). Moreover the test was carried out with estrogen receptor negative MD-MB 231 cells. MCF-7 cells (MDA-MB 231 cells) from an almost confluent monolayer were harvest by trypsinization and suspended to approximately 7 x 10^3 cells/mL (1 x 10^3 cells/mL). At the beginning of the experiment, the cell suspension was transferred to 96-well microplates (100 µL/well). After cultivating them for 3 days at growing conditions the medium was removed and replaced by one containing the test compounds. Control wells (16/plate) were contained 0.1% of DMSO, which was used for the preparation of the stock solutions. The initial cell density was determined by addition of glutaric dialdehyde (1 % in PBS; 100 µL/well). After incubation for 3-7 days, the medium was removed, and glutaric dialdehyde (1 % in PBS; 100 µL/well) was added for fixation. After 15 min, the solution of the aldehyde was decanted and 180 µL PBS/well added. The plates were stored at 4°C until staining. Cells were stained by treating them for 25 min with 100 µL of an aqueous solution of crystal violet (0.02%). After decanting cells were washed several times with water to remove the adherent dye. After addition of 180 µL of ethanol (70%), plates were gently shaken for 4 h. Optical density of each well was measured in a microplate autoreader at 590 nm.
(§2) MCF-7 cells (MDA-MB 231 cells) from an almost confluent monolayer were harvested by trypsinization and suspended to approximately 10 × 10^3 cells/mL (5 x 10^3 cells/mL). After cultivating them for 3 days at growing conditions the medium was removed and replaced by one containing the test compounds (control wells 8/plate). After incubation of 72 h (48 h) the medium was removed and the test was continued as descried above.

MDA-MB 231 cells = assay: as above; format: cell-based; settings: Homo sapiens; estrogen receptor negative MDA-MB 231 cells; incubation of 48 h
Protocol: as §1, §2

estrogen receptor = molecular target: T1, estrogen receptor (Homo sapiens, UniProt P03372); assay: Whole Cell Assay (WCA): competitive estrogen receptor binding against [3H]17β-estradiol; settings: test compound 10^-6 M, 1 h incubation (37°C), percentage to a solvent treated control sample
T1 construct: endogenous in cells; host or cells: MCF-7
T1 sequence (P03372 1-595): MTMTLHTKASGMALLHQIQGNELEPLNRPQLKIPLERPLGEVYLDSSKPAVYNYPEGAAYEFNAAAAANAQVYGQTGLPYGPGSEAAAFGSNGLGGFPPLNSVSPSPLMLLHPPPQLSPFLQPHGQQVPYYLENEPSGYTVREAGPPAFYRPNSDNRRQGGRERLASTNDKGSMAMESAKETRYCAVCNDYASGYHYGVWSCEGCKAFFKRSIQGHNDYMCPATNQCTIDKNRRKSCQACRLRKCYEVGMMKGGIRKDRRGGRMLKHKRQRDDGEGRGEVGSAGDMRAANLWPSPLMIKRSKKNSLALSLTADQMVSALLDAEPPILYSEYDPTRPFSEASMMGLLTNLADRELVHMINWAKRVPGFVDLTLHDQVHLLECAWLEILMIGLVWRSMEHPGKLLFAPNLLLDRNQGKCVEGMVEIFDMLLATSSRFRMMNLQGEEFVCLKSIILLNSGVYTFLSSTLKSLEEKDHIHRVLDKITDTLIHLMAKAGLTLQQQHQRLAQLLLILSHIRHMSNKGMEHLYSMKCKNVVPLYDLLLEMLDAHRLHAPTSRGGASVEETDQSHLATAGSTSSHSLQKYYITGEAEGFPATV
Protocol: (§3) ER binding affinity is measured in competitive binding assays compared to estradiol. Binding affinity is expressed as a relative binding affinity (RBA) in percent compared to estradiol which is assigned an affinity of 100%. Substantial affinity for ER is indicated by an RBA of about 0,1% or more. Good affinity binding to ER is indicated by an RBA of about 1%- to about 10%. High affinity binding to ER is indicated by an RBA of about 10% or higher.
MCF-7 cells were plated in 24-well dishes (4 x 10^4 cells/well) and cultured for 48 h. After the incubation the medium was replaced by test compounds diluted in serum free medium containing [^3H]17β-Estradiol ([^3H]E2). Additional wells of each test compound concentration were filled with 500-fold excess of unlabeled E2 for nonspecific binding measurements. After 1 h incubation (37°C) the medium was removed and monolayer washed three times with an ice-cold saline solution. Bond E2 was then extracted from the monolayer with 1 mL ethanol at room temperature (20 min of incubation) and aliquots of 200 µL of ethanolic extracts were transferred to scintillation vials containing 3.8 mL scintillator Ecoscint H (National Diagnostic, Atlanta) for radioactivity counting. All measurements were performed in duplicate. Specific [^3H]E2 incorporation into the cells was calculated from the difference in incorporated radioactivity after incubation in the absence or presence of an excess of unlabeled E2. The results (relative radioactivity) were expressed as a percentage to a solvent treated control sample.

[1] = molecular target: T2, recombinant human estrogen receptor (hERα) (Homo sapiens, UniProt P03372); assay: Recombinant ERα (HAP Assay): competitive binding against [3H]E2 on hydroxylapatite; settings: hERα adsorbed on hydroxylapatite; test compound 10^-6 M; overnight at 4°C; percentage to a solvent treated control sample
T2 construct: purchased Calbiochem
T2 sequence (P03372 1-595): T1 sequence (P03372 1-595)
Protocol: as §3
An ethanolic solution (250 fmol/µL) of recombinant human estrogen receptor (hERα) (Calbiochem) was diluted with Tris-HCl buffer pH 8.0 (1:100). This hERα preparations adsorbed on hydroxylapatite pellets (prepared in 10 mmol/L Tris HCl buffer pH 8.0) which were labeled with increasing concentrations of the test compound (10^-10 - 10^-5 M) and [^3H]E2 (0.1 %) in presence or absence of 200-fold excess of unlabeled E2 and were incubated overnight at 4°C. Bond [^3H]E2 were then successively extracted with ethanol and aliquots of 200 µL of ethanolic extracts were transferred to scintillation vials containing 3.8 mL scintillator Ecoscint H (National Diagnostic, Atlanta) for radioactivity counting. The data interpretation was carried out as shown above.

SMILES | IC50 (MCF-7 cells) [µM] | IC50 (MDA-MB 231 cells) [µM] | Relative radioactivity of labeled [^3H]E2; RBA-value MCF-7 cells (WCA); 10^-6 M (estrogen receptor) [%] | Relative radioactivity of labeled [^3H]E2; RBA-value HAP-Assay; 10^-6 M [1] [%]
COc1ccc(-c2cc(-c3ccc(OC)cc3)c(-c3ccc(OC)cc3Cl)[nH]2)cc1 [Example 1, 2-(2-Chloro-4-methoxyphenyl)-3,5-bis(4-methoxyphenyl)-1H-pyrrole] | 17.7 | 27.4 | – | –
COc1ccc(-c2cc(-c3ccc(OC)cc3Cl)[nH]c2-c2ccc(OC)cc2)cc1 [Example 2, 5-(2-Chloro-4-methoxyphenyl)-2,3-bis(4-methoxyphenyl)-1H-pyrrole] | 9.5 | 10.3 | – | –
Oc1ccc(-c2cc(-c3ccc(O)cc3)c(-c3ccc(O)cc3Cl)[nH]2)cc1 [Example 7, 2-(2-Chloro-4-hydroxyphenyl)-3,5-bis(4-hydroxyphenyl)-1H-pyrrole] | 16.4 | 13.5 | 35.3 ± 4.9 | 26.4 ± 8.3
Oc1ccc(-c2cc(-c3ccc(O)cc3Cl)[nH]c2-c2ccc(O)cc2Cl)cc1 [Example 9, 2,5-Bis(2-chloro-4-hydroxyphenyl)-3-(4-hydroxyphenyl)-1H-pyrrole] | 7.6 | 13.4 | 13.1 ± 3.2 | 19.1 ± 1.5
Oc1ccc(-c2cc(-c3ccc(O)cc3)c(-c3ccc(Cl)cc3O)[nH]2)cc1 [Example 10, 2-(4-Chloro-2-hydroxyphenyl)-3,5-bis(4-hydroxyphenyl)-1H-pyrrole] | 9.2 | 18.8 | – | –
Oc1ccc(-c2cc(-c3ccc(O)cc3Cl)[nH]c2-c2ccc(Cl)cc2O)cc1 [Example 11, 5-(2-Chloro-4-hydroxyphenyl)-2-(4-chloro-2-hydroxyphenyl)-3-(4-hydroxyphenyl)-1H-pyrrole] | 10.5 | 14 | – | –
CCCc1c(-c2ccc(Cl)cc2O)[nH]c(-c2ccc(O)cc2)c1-c1ccc(O)cc1 [Example 12, 2-(4-Chloro-2-hydroxyphenyl)-4,5-bis(4-hydroxyphenyl)-3-propyl-1H-pyrrole] | 8.1 | 6.5 | 78.1 ± 4.4 | 70.3 ± 6.1
COc1ccc(-c2cc(-c3ccc(OC)cc3Cl)c(C)n2-c2ccc(OC)cc2)cc1 [Example 13, 4-(2-Chloro-4-methoxyphenyl)-1,2-bis(4-methoxyphenyl)-5-methyl-1H-pyrrole] | 23.6 | 20.3 | – | –
COc1ccc(-c2cc(-c3ccc(OC)cc3Cl)c(CC(C)C)n2-c2ccc(OC)cc2)cc1 [Example 16, 4-(2-Chloro-4-methoxyphenyl)-5-isobutyl-1,2-bis(4-methoxyphenyl)-1H-pyrrole] | 18 | 15.2 | – | –
CCCc1c(-c2ccc(OC)cc2F)cc(-c2ccc(OC)cc2)n1-c1ccc(OC)cc1 [Example 17, 4-(2-Fluoro-4-methoxyphenyl)-1,2-bis(4-methoxyphenyl)-5-propyl-1H-pyrrole] | 17.8 | 18.4 | – | –
Cc1c(-c2ccc(O)cc2Cl)cc(-c2ccc(O)cc2)n1-c1ccc(O)cc1 [Example 18, 4-(2-Chloro-4-hydroxyphenyl)-1,2-bis(4-hydroxyphenyl)-5-methyl-1H-pyrrole] | 23.4 | 17.4 | – | –
CCc1c(-c2ccc(O)cc2Cl)cc(-c2ccc(O)cc2)n1-c1ccc(O)cc1 [Example 19, 4-(2-Chloro-4-hydroxyphenyl)-5-ethyl-1,2-bis(4-hydroxyphenyl)-1H-pyrrole] | 17.8 | 18.4 | 41.2 ± 8.3 | 30.1 ± 5.1
CCCc1c(-c2ccc(O)cc2Cl)cc(-c2ccc(O)cc2)n1-c1ccc(O)cc1 [Example 20, 4-(2-Chloro-4-hydroxyphenyl)-1,2-bis(4-hydroxyphenyl)-5-propyl-1H-pyrrole] | 19.5 | 16.2 | – | –
CC(C)Cc1c(-c2ccc(O)cc2Cl)cc(-c2ccc(O)cc2)n1-c1ccc(O)cc1 [Example 21, 4-(2-Chloro-4-hydroxyphenyl)-5-isobutyl-1,2-bis(4-hydroxyphenyl)-1H-pyrrole] | 15.2 | 16.1 | – | –

— patent EP1889617A1, “Triphenyl modified 5-membered heterocycles and their use as anticancer and antiflammatory agents” (Freie Universität Berlin, priority 2006, dated 2008)
